Assay results published in ChEMBL document CHEMBL5370549, “Optimization and evaluation of pyridinyl vinyl sulfones as Nrf2 activator for the antioxidant and anti-inflammatory effects” (Eur J Med Chem, 2023).
The source made the active and inactive calls. No cut-off for these calls is given here.

Columns and labels:
BV-2 [1] = assay: Antiinflammatory activity against LPS-induced mouse BV-2 cells assessed as inhibition of iNOS protein expression pretreated for 6 hrs followed by LPS stimulation for 24 hrs by immunoblot analysis; type: functional, cell-based; conditions: dose 0.001-1 µM, time 30.0 hrs
Mus musculus [2] = assay: (§1) Antiinflammatory activity against LPS-induced neuroinflammation C57BL/6N mouse model assessed as reduction of glial cell reactivity by measuring reduction in IBA1 expression in cortex at 20 mg/kg/day, po administered for 3 days followed by LPS administration for 7 days by immunofluorescence staining based analysis; type: functional, organism-based; conditions: time 10.0 day
[3] = Metabolic stability of the compound in rat plasma assessed as parent compound remaining measured after 30 mins; type: ADME, cell-free; conditions: read-out: Stability
[4] = target: T1, Nuclear factor erythroid 2-related factor 2 (Mus musculus) (UniProt Q60795); assay: Activation of Nrf2 in mouse BV-2 cells assessed as increase in Nrf2 nuclear translocation measured after 3 hrs by immunoblot analysis; type: subcellular; conditions: Nucleus, filed as activator, dose 0.01-3 µM
T1 sequence (whole entry): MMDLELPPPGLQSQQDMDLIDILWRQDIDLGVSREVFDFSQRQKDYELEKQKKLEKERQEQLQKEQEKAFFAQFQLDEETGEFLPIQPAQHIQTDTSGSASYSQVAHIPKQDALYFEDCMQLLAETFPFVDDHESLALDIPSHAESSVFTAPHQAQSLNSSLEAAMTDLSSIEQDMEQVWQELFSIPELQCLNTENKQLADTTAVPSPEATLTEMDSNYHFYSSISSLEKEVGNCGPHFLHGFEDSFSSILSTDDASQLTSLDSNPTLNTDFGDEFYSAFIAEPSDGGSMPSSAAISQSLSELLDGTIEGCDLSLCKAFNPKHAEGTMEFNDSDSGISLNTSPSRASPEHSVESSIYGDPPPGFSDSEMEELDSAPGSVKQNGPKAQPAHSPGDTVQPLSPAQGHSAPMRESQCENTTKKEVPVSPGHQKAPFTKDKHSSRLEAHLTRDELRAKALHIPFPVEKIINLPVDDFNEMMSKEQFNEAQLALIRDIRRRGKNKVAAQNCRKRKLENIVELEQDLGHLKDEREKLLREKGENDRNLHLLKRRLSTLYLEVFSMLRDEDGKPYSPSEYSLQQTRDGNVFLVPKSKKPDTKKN

[5] = target: T2, Nuclear factor erythroid 2-related factor 2 (Homo sapiens, UniProt Q16236); assay: Activation of Nrf2 in human U2OS cells co-expressing Keap1 assessed as induction of Nrf2 nuclear translocation incubated for 6 hrs by PathHunter chemiluminescence based analysis; type: cell-based
T2 sequence (Q16236 whole entry): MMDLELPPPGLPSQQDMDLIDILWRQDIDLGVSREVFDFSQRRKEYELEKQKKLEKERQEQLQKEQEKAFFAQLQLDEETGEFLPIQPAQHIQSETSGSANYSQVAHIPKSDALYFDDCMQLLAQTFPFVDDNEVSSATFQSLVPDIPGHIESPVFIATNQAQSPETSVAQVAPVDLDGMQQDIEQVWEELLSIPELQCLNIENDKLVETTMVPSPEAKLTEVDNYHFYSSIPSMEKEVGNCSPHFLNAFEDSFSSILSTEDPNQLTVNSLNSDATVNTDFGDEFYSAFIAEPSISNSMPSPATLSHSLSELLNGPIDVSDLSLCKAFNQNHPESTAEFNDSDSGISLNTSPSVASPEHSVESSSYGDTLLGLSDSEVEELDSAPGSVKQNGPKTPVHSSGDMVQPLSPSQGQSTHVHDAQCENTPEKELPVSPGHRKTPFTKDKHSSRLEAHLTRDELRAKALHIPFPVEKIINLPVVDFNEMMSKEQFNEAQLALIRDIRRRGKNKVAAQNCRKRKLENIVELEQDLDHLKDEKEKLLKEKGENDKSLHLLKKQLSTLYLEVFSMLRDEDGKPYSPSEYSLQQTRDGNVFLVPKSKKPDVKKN

[6] = Toxicity against C57BL/6N mouse at 1000 mg/kg, po administered as single dose; type: organism-based; conditions: in vivo
CYP2D6 = CYP2D6 (Homo sapiens, UniProt P10635); assay: Inhibition of CYP2D6 (unknown origin) assessed as enzyme activity at 10 uM relative to control; type: ADME; parameters: scale not given: the % may be the effect or the level left; conditions: read-out: Activity
BV-2 [7] = assay: Antiinflammatory activity against LPS-induced mouse BV-2 cells assessed as inhibition of IL-1 beta protein expression at 0.001 to 1 uM pretreated for 6 hrs followed by LPS stimulation for 24 hrs by immunoblot analysis; type: functional, cell-based; conditions: dose 0.001-1 µM, time 30.0 hrs
BV-2 [8] = assay: Antiinflammatory activity against LPS-induced mouse BV-2 cells assessed as inhibition of IL-1 beta mRNA expression at 0.1 to 3 uM pretreated for 6 hrs followed by LPS stimulation for 6 hrs by qRT-PCR analysis; type: functional, cell-based; conditions: dose 0.1-3 µM, time 12.0 hrs
Mus musculus [9] = assay: as §1, with “GFAP” for “IBA1”, “hippocampus CA3 region” for “cortex”; type: functional, organism-based; conditions: time 10.0 day
Mus musculus [10] = assay: Antiinflammatory activity against LPS-induced neuroinflammation C57BL/6N mouse model assessed as inhibition of IL-6 production in plasma at 20 mg/kg/day, po administered for 3 days followed by LPS administration for 7 days by ELISA; type: functional, organism-based; conditions: time 10.0 day
Mus musculus [11] = assay: as §1, with “GFAP” for “IBA1”, “hippocampus CA1 region” for “cortex”; type: functional, organism-based; conditions: time 10.0 day
[12] = target: T1, Nuclear factor erythroid 2-related factor 2 (Mus musculus); assay: Activation of Nrf2 in mouse BV-2 cells assessed as increase in Nrf2 level in whole cell lysates measured after 3 hrs by immunoblot analysis; type: subcellular; conditions: filed as activator, dose 0.01-3 µM
Mus musculus [13] = assay: Cognitive enhancing activity against LPS-induced neuroinflammation C57BL/6N mouse model assessed as […] memory improvement by measuring delayed step-through latency at 20 mg/kg/day, po administered for 3 days followed by LPS administration for 7 days by passive avoidance test; type: functional, organism-based; conditions: time 10.0 day
[14] = target: T1, Nuclear factor erythroid 2-related factor 2 (Mus musculus); assay: Activation of Nrf2 in mouse BV-2 cells assessed as increase in HO-1 protein expression at 3 uM measured after 24 hrs by immunoblot analysis; type: cell-based; conditions: filed as activator
BV-2 [15] = assay: Cytotoxicity against mouse BV-2 cells assessed as effect on cell viability upto 3 uM incubated for 24 hrs by WST assay; type: toxicity, cell-based; conditions: bv-2, 24 h
[16] = target: T1, Nuclear factor erythroid 2-related factor 2 (Mus musculus); assay: Activation of Nrf2 in mouse BV-2 cells assessed as increase in GCLM protein expression at 3 uM measured after 12 hrs by immunoblot analysis; type: cell-based; conditions: filed as activator
[17] = Metabolic stability of the compound in human liver microsomes assessed as parent compound remaining measured after 30 mins; type: ADME, Microsome; conditions: read-out: Stability
[18] = target: T1, Nuclear factor erythroid 2-related factor 2 (Mus musculus); assay: Activation of Nrf2 in mouse BV-2 cells assessed as increase in HO-1 mRNA expression incubated for 3 hrs by qRT-PCR analysis; type: cell-based; conditions: filed as activator, dose 0.01-3 µM
[19] = Metabolic stability of the compound in human plasma assessed as parent compound remaining measured after 30 mins; type: ADME, cell-free; conditions: read-out: Stability
CYP2C9 = CYP2C9 (Homo sapiens, UniProt P11712); assay: Inhibition of CYP2C9 (unknown origin) assessed as enzyme activity at 10 uM relative to control; type: ADME; parameters: scale not given: the % may be the effect or the level left; conditions: read-out: Activity
Mus musculus [20] = assay: as §1, with “GFAP” for “IBA1”, “dentate gyrus” for “cortex”; type: functional, organism-based; conditions: time 10.0 day

Sequence of CYP2D6 (P10635 whole entry): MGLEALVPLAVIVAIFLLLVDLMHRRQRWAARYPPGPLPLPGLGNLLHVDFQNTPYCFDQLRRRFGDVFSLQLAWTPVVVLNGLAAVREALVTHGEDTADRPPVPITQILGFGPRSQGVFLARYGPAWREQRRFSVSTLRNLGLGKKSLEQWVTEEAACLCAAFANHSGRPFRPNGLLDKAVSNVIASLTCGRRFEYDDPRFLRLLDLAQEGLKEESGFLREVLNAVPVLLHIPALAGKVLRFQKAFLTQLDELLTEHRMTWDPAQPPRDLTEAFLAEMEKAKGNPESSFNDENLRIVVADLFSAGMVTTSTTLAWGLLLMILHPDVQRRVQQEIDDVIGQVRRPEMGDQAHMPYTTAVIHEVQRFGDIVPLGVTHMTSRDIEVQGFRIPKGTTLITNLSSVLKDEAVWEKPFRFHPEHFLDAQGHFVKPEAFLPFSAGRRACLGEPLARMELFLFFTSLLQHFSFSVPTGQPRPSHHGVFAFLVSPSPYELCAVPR
Sequence of CYP2C9 (P11712 whole entry): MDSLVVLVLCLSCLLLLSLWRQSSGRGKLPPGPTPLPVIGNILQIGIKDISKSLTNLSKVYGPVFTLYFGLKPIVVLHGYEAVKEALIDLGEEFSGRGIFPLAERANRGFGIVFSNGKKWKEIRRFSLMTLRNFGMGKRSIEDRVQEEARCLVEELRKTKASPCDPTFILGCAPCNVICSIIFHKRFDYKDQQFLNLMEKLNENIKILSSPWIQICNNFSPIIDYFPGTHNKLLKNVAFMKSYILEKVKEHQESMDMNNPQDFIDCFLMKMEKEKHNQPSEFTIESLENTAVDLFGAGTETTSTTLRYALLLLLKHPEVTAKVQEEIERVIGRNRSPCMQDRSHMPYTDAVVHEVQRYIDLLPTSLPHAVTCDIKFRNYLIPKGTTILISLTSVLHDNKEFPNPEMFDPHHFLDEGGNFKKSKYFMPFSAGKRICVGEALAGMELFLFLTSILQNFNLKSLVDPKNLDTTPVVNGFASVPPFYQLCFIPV

SMILES: COc1cccnc1S(=O)(=O)/C=C/c1ncccc1Cl
- Activity (BV-2 [1]): Dose-Dependent Effect
- Activity (Mus musculus [2]): Active
- remaining at 0.5 h [3]: 74.4%
- Activity [4]: Dose-Dependent Effect
- EC50 [5]: 37 nM
- Activity [6]: Non-Toxic
- activity at 10 µM (CYP2D6): > 99%
- Activity (BV-2 [7]): Active
- Activity (BV-2 [8]): Active
- Activity (Mus musculus [9]): Active
- Activity (Mus musculus [10]): Active
- Activity (Mus musculus [11]): Active
- Activity [12]: Dose-Dependent Effect
- Activity (Mus musculus [13]): Active
- Activity [14]: Active
- Activity (BV-2 [15]): Non-Toxic
- Activity [16]: Active
- remaining at 0.5 h [17]: 94.1%
- Activity [18]: Dose-Dependent Effect
- remaining at 0.5 h [19]: 92.8%
- activity at 10 µM (CYP2C9): > 99%
- Activity (Mus musculus [20]): Active
